Assay results from ChEMBL document CHEMBL4196096, “Reviewing Hit Discovery Literature for Difficult Targets: Glutathione Transferase Omega-1 as an Example” (J Med Chem, 2018).
Each block holds one compound with its values, some of them ahead of it.

Tests used:
[1] = target: T1, Glutathione S-transferase omega-1 (Homo sapiens, UniProt P78417); test: Inhibition of human GSTO1-1 by MMA (V) reductase assay
T1 sequence (P78417 whole entry): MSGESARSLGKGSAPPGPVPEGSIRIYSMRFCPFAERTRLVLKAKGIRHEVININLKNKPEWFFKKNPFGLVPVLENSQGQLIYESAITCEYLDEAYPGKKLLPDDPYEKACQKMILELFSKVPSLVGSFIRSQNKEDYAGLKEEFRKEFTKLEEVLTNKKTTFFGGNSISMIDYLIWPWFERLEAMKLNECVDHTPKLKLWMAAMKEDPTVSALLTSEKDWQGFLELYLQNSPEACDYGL

[2] = target: T1, Glutathione S-transferase omega-1; test: Inhibition of GSTO1-1 (unknown origin) by enzymatic assay
[3] = target: Glutathione S-transferase omega-1 (Homo sapiens) (UniProt P78417); test: Inhibition of human GSTO1-1 expressed in HEK293 cells by CDNB-GSH conjugation assay
[4] = target: Glutathione S-transferase P (Homo sapiens, UniProt P09211); test: Inhibition of human GSTP1-1
Sequence of Glutathione S-transferase P (P09211 whole entry): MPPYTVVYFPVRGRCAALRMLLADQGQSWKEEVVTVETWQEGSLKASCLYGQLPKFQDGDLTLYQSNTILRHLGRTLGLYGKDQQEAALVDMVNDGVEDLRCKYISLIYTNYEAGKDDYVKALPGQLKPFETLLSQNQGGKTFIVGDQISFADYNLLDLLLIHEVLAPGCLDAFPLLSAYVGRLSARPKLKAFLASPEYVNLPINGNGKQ

[5] = target: T1, Glutathione S-transferase omega-1; test: Inhibition of GSTO1-1 (unknown origin) pre-incubated for 1 hr before GSH addition by CDNB-GSH conjugation assay
[6] = target: T1, Glutathione S-transferase omega-1; test: Inhibition of GSTO1-1 (unknown origin) by 4-NPG substrate based assay

SMILES: C[C@H](CCC(=O)O)[C@H]1CC[C@H]2[C@@H]3CC[C@@H]4C[C@H](O)CC[C@]4(C)[C@H]3C[C@H](O)[C@]12C
- IC50 [1]: 1020 µM

SMILES: CCN(CC)C(=O)SSC(=O)N(CC)CC
- IC50 [2]: < 0.4 µM

SMILES: Cc1c(C)c2c(c(C)c1O)CC[C@@](C)(CCC[C@H](C)CCC[C@H](C)CCCC(C)C)O2 [ALPHA-TOCOPHEROL]
- IC50 [4]: 0.5 µM

SMILES: CC(C)c1cc2c(c(O)c1O)[C@@]1(C(=O)O)CCCC(C)(C)[C@@H]1CC2 [CARNOSIC ACID]
- IC50 [6]: 62 µM

SMILES: O=[N+]([O-])c1ccc(Cl)c([N+](=O)[O-])c1 [DINITROCHLOROBENZENE]
- IC50 [1]: 900 µM

Other lines, results leading:

- IC50 [3]: 0.0512 µM
SMILES: CC(=O)Oc1ccc2c(c1)Oc1cc(OC(C)=O)ccc1C21OC(=O)c2cc(CCl)ccc21

- IC50 [1]: 4 µM
SMILES: Cc1c(C)c2c(c(C)c1OC(=O)CCC(=O)O)CC[C@@](C)(CCC[C@H](C)CCC[C@H](C)CCCC(C)C)O2 [(+)-ALPHA-TOCOPHERYL SUCCINATE]

- IC50 [5]: 0.15 µM
SMILES: CC(C)C[C@H](NC(=O)[C@H](CCc1ccccc1)NC(=O)CN1CCOCC1)C(=O)N[C@@H](Cc1ccccc1)C(=O)N[C@@H](CC(C)C)C(=O)[C@@]1(C)CO1 [CARFILZOMIB]

- IC50 [1]: 25 µM
SMILES: C=C(CC)C(=O)c1ccc(OCC(=O)O)c(Cl)c1Cl [ETHACRYNIC ACID]

- IC50 [6]: 1.6 µM
SMILES: O=C1C=CC(O)(c2cc(=O)c3c(O)cc(O)cc3o2)C=C1 [PROTOAPIGENONE]
